Biological target: T1, human A3R (Homo sapiens, UniProt P0DMS8)
T1 sequence (P0DMS8 1-318): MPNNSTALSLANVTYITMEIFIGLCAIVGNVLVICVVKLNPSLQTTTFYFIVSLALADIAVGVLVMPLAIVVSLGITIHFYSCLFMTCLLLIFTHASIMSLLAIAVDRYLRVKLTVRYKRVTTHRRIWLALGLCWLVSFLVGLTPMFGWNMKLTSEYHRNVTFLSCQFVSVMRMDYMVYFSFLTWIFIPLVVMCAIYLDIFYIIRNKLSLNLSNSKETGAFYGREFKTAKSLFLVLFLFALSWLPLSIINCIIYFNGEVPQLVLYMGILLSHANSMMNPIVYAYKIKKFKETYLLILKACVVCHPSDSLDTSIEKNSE
Experiment: TGFα shedding assay, human A3R WT
Format: cell-based
Conditions: for activation of A3R (in words): human A3R

| Compound | activation of A3R (in words) | calculated intrinsic activity (RAi) relative to adenosine (A3R) [%] | potency towards all four adenosine receptors (in words) (A1R, A2AR, A2BR, A3R) |
| --- | --- | --- | --- |
| C[C@@H](O)[C@H](NC(=O)Nc1ncnc2c1ncn2[C@@H]1O[C@H](CO)[C@@H](O)[C@H]1O)C(=O)O [t6A, N6-Threonylcarbamoyladenosine] | did not show any potency on A3R |  |  |
| CC(C)=CCNc1ncnc2c1ncn2[C@@H]1O[C@H](CO)[C@@H](O)[C@H]1O [i6A, N6-Isopentenyladenosine] | selectively activates A3R | 59 |  |
| 1-methyladenosine [m^1A] | can also induce A3R activation |  | weak and non-selective potency |
| CN(C)c1ncnc2c1ncn2[C@@H]1O[C@H](CO)[C@@H](O)[C@H]1O [m6,6A, N6,N6-Dimethyladenosine] | very weak activation of A3R | 7 |  |

Source: PMC11544091 (Nature Communications, 2024)
